Measured values taken from US20110288154A1, “RNA Interference Mediated Inhibition of Epithelial Sodium Channel (ENaC) Gene Expression Using Short Interfering Nucleic Acid (siNA)” (MERCK & CO., INC., priority 2008, published 2011).
[invAb] = inverted abasic unit; m = 2'-O-methyl; r = 2'-OH (RNA); f = 2'-fluoro

Key:
mSCNN1A mRNA = assay: Screening of ENaCα siNAs in mouse NIH 3T3 cells (quantitative RT-PCR); type: cell-based; set-up: Percent Reduction of the mSCNN1A mRNA relative to a non-targeting control siNA / Mouse % KD (efficacy of ENaCα mRNA knockdown): concentration or dose not given beside the values; conditions: mouse NIH 3T3 cells, n = 3; for Mean (mSCNN1A expression normalized to the level of m36B4) / Percent Reduction of the mSCNN1A mRNA relative to a non-targeting control siNA / Avg 36B4 Expression: 24 hours post-transfection; for Avg ENaCα Expression (mSCNN1A): harvested 24 hours post-transfection; for Avg 36B4 Expression: housekeeping gene used for normalisation
Protocol: siNA constructs (Table 1b) may be tested for efficacy in reducing ENaC RNA expression in, for example, A549 human lung carcinoma cells. A549 (human; ATCC cat# CCL-185) cells were cultured at 37° C. in the presence of 5% CO2 and grown in Ham's F12K medium with 2 mM L-glutamine adjusted to contain 1.5 g/L sodium bicarbonate and supplemented with fetal bovine serum at a final concentration of 10% and 100 U/mL penicillin. The A549 cells were plated approximately 24 hours before transfection in 96-well plates at 7,500 cells/well, 100 μl/well. After 24 hours complexes containing siNA and Lipofectamine 2000 (Invitrogen) were created as follows: a solution of Lipofectamine 2000 in OPTI-MEM was prepared containing Lipofectamine 2000 at a final concentration of 14 μg/ml. In parallel, solutions of the siNAs were prepared in OPTI-MEM at a final concentration of 150 nM. After both solutions were incubated at 20° C. for 20 minutes an equal volume of the siNA solutions and the Lipofectamine 2000 solution were added together for each of the siNAs. The resultant solution has the siNAs at a final concentration of 75 nM and Lipofectamine 2000 at a final concentration of 7 μg/ml. This solution was incubated at 20° C. for 20 minutes. After incubation 50 μl of the solution were added to each of the wells (in triplicate). The final concentration of siNA in each well was 25 nM and the final concentration of Lipofectamine 2000 in each well was 2.33 μg/ml. The plates were incubated for 48 hours with no change of media before harvesting. Dose response curves were determined in a similar manner with each concentration being done in triplicate and maintaining a constant amount of Lipofectamine 2000 in each transfection.
(§1) A series of probes and primers were used to detect the various mRNA transcripts of the genes of ENaCa and GAPDH in mouse, rat, and human cell lines. The assays were performed on an ABI 7500 instrument, according to the manufacturer's instructions. Within each experiment, the baseline was set in the exponential phase of the amplification curve, and based on the intersection point of the baselines with the amplification curve, a Ct value was assigned by the instrument. This Ct value was then assigned a QTY value based on the Standard Curve. The standard curve in the various experiments herein used 1 ng to 300 ng of RNA extracted from the same cell line used for the experimental transfections.
(§2) All IC50 values were calculated from the data using GraphPad Prizm software, specifically a sigmoidal, variable slope curve for simple ligand binding. Also, unless otherwise indicated, all calculations of the efficacy and potency (e.g., % knockdown) of the siNAs were done relative to a non-targeting control siNA. If reported, P-values were computed using The Students t-test, including the Welch Correction for unequal variances.
(§3) In all of the calculations of the % knock-down of mRNA, the calculation was made relative to the normalized level of expression of the gene of interest in the samples treated with the non-targeting control (NTC) unless otherwise indicated. The gene of interest expression level was divided by the level of expression of GAPDH or 36B4 (depending on the species) in each sample. The three replicates for each condition in each experiment were averaged and the standard deviation of those samples was calculated. The following formula was then used to calculate the % of knock-down of the gene of interest:
(§4) The ENaCα siNAs were designed and synthesized as described previously. The siNAs were screened in three cell lines. Human A549 cells, mouse NIH 3T3 and Rat H-4-II-E cells. The data from the screen of ENaCa siNAs in all three species is shown in Tables 3a, 3b, 4a, 4b, 5a, and 5b and a summary of the data for certain siNA molecules is presented in Table 6. Each screen was performed at 24 hrs. The decision to use this time point was based upon the degree of knockdown of the mRNA seen at that time point.

rSCNN1A (r ENaCα) mRNA = assay: Screening of ENaCα siNAs in Rat H-4-II-E cells (quantitative RT-PCR); type: cell-based; set-up: Percent Reduction of the r ENaCα mRNA relative to a non-targeting control siNA (NTCs) / Rat % KD (efficacy of ENaCα mRNA knockdown): concentration or dose not given beside the values; conditions: Rat H-4-II-E cells, n = 3; for Mean (rSCNN1A expression normalized to the level of rGAPDH) / Percent Reduction of the r ENaCα mRNA relative to a non-targeting control siNA (NTCs) / Avg GAPDH Expression (rGAPDH): 24 hours post-transfection; for Avg ENaCα Expression (rSCNN1A): harvested 24 hours post-transfection; for Avg GAPDH Expression (rGAPDH): housekeeping gene used for normalisation
Protocol: as §1, §2, §3, §4

Row | Substance | Mean (mSCNN1A expression normalized to the level of m36B4) (mSCNN1A mRNA) | Percent Reduction of the mSCNN1A mRNA relative to a non-targeting control siNA (mSCNN1A mRNA) | Avg ENaCα Expression (mSCNN1A) (mSCNN1A mRNA) | Avg 36B4 Expression (mSCNN1A mRNA) | Mean (rSCNN1A expression normalized to the level of rGAPDH) (rSCNN1A (r ENaCα) mRNA) | Percent Reduction of the r ENaCα mRNA relative to a non-targeting control siNA (NTCs) (rSCNN1A (r ENaCα) mRNA) | Avg ENaCα Expression (rSCNN1A) (rSCNN1A (r ENaCα) mRNA) | Avg GAPDH Expression (rGAPDH) (rSCNN1A (r ENaCα) mRNA)
1 | B cAGAGcAGAAuGAcuucAu TTB / AUGAAGucAuucuGcucuGUU (sense CAGAGCAGAAUGACUUCAUTT; antisense AUGAAGUCAUUCUGCUCUGUU; siRNA; sense: DNA at AGT, 2'-fluoro at CU, [invAb] at 5' end, 3' end, backbone not given here; antisense: sugars from the 5' end rrrmmmffmffffmffffmmm, backbone not given here) [Site 1100] | 0.24 | −1.5% | 3.43 | 14.25 | 0.83 | 35.4% | 21.68 | 26.15
2 | B cAcAAccGcAuGAAGAcGG TTB / CCGucuucAuGcGGuuGuGUU (chain 1 CACAACCGCAUGAAGACGGTT; chain 2 CCGUCUUCAUGCGGUUGUGUU; siRNA; chain 1: DNA at AGT, 2'-fluoro at CU, [invAb] at 5' end, 3' end, backbone not given here; chain 2: sugars from the 5' end rrrfffffmfmfmmffmfmmm, backbone not given here) [Site 334] | 0.21 | 12.3% | 3.57 | 16.98 | 0.85 | 33.7% | 16.10 | 19.11
3 | B cAcuccuGcuuccAGGAGA TTB / UCUccuGGAAGcAGGAGuGUU (sense CACUCCUGCUUCCAGGAGATT; antisense UCUCCUGGAAGCAGGAGUGUU; siRNA; sense: DNA at AGT, 2'-fluoro at CU, [invAb] at 5' end, 3' end, backbone not given here; antisense: sugars from the 5' end rrrfffmmmmmfmmmmmfmmm, backbone not given here) [Site 1351] | 0.22 | 9.6% | 2.56 | 11.91 | 0.72 | 43.7% | 18.06 | 24.87
4 | B cGcAuGAAGAcGGccuucu TTB / AGAAGGccGucuucAuGcGUU (chain 1 CGCAUGAAGACGGCCUUCUTT; chain 2 AGAAGGCCGUCUUCAUGCGUU; siRNA; chain 1: DNA at AGT, 2'-fluoro at CU, [invAb] at 5' end, 3' end, backbone not given here; chain 2: sugars from the 5' end rrrmmmffmfffffmfmfmmm, backbone not given here) [Site 340] | 0.23 | 5.4% | 3.35 | 14.93 | 1.07 | 16.7% | 22.68 | 21.20
5 | B ccAuccGccuGGuGuGcuc TTB / GAGcAcAccAGGcGGAuGGUU (chain 1 CCAUCCGCCUGGUGUGCUCTT; chain 2 GAGCACACCAGGCGGAUGGUU; siRNA; chain 1: DNA at AGT, 2'-fluoro at CU, [invAb] at 5' end, 3' end, backbone not given here; chain 2: sugars from the 5' end rrrfmfmffmmmfmmmfmmmm, backbone not given here) [Site 311] | 0.23 | 4.6% | 3.83 | 16.80 | 0.83 | 35.2% | 16.42 | 19.71
6 | B ccGcAuGAAGAcGGccuuc TTB / GAAGGccGucuucAuGcGGUU (chain 1 CCGCAUGAAGACGGCCUUCTT; chain 2 GAAGGCCGUCUUCAUGCGGUU; siRNA; chain 1: DNA at AGT, 2'-fluoro at CU, [invAb] at 5' end, 3' end, backbone not given here; chain 2: sugars from the 5' end rrrmmffmfffffmfmfmmmm, backbone not given here) [Site 339] | 0.35 | −44.9% | 5.05 | 14.61 | 0.79 | 38.3% | 15.81 | 19.92
7 | B cccuGcuGuccAcAGuGAc TTB / GUCAcuGuGGAcAGcAGGGUU (sense CCCUGCUGUCCACAGUGACTT; antisense GUCACUGUGGACAGCAGGGUU; siRNA; sense: DNA at AGT, 2'-fluoro at CU, [invAb] at 5' end, 3' end, backbone not given here; antisense: sugars from the 5' end rrrmffmfmmmfmmfmmmmmm, backbone not given here) [Site 1121] | 0.27 | −14.5% | 3.39 | 11.45 | 0.84 | 34.6% | 19.44 | 23.01
8 | B cuGuGcAAccAGAAcAAAu TTB / AUUuGuucuGGuuGcAcAGUU (chain 1 CUGUGCAACCAGAACAAAUTT; chain 2 AUUUGUUCUGGUUGCACAGUU; siRNA; chain 1: DNA at AGT, 2'-fluoro at CU, [invAb] at 5' end, 3' end, backbone not given here; chain 2: sugars from the 5' end rrrfmffffmmffmfmfmmmm, backbone not given here) [Site 781] | 0.22 | 9.8% | 3.50 | 16.49 | 0.86 | 32.8% | 23.09 | 26.57
